From PubChem BioAssay (NCI)
Several values for one entry are separate records, joined by “and”; a condition that tells them apart may be missing. Equal values may be shown once.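 These data come from cells grown in 96-well plates and exposed to compound for 48 hours at five concentrations. GI50 = concentration required for 50% inhibition of growth. The concentration for full growth arrest is given as TGI.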

Tests used:
Test in all cases: NCI anticancer screen, dose series, 48 h
A498 renal = tested on: A498 renal
ACHN renal = tested on: ACHN renal
EKVX NSCLC = tested on: EKVX NSCLC
HCC-2998 colon = tested on: HCC-2998 colon
HL-60(TB) leukemia = tested on: HL-60(TB) leukemia
HOP-62 NSCLC = tested on: HOP-62 NSCLC
SW-620 colon = tested on: SW-620 colon
UACC-257 melanoma = tested on: UACC-257 melanoma
UACC-62 melanoma = tested on: UACC-62 melanoma
HS 578T breast = tested on: HS 578T breast

Row | Compound | TGI (A498 renal) [µM] | TGI (ACHN renal) | TGI (EKVX NSCLC) | TGI (HCC-2998 colon) | TGI (HL-60(TB) leukemia) | TGI (HOP-62 NSCLC) | TGI (SW-620 colon) | TGI (UACC-257 melanoma) | TGI (UACC-62 melanoma) | GI50 (ACHN renal) [µM] | GI50 (HCC-2998 colon) [µM] | GI50 (HL-60(TB) leukemia) [µM] | GI50 (HOP-62 NSCLC) [µM] | GI50 (HS 578T breast) [µM] | TGI (HS 578T breast) [µM] | GI50 (SW-620 colon) [µM] | GI50 (UACC-257 melanoma) [µM] | GI50 (UACC-62 melanoma) [µM] | GI50 (EKVX NSCLC) [µM] | GI50 (A498 renal) [µM]
1 | COC(=O)NN1C(C)=C(C(=O)OC)C2(C#N)C(C(=O)OC)=C(C)N(NC(=O)OC)C12N (stereo not drawn) | > 100 | > 100 µM | > 100 µM | > 100 µM | > 100 µM | > 100 µM | > 100 µM | > 100 µM | > 100 µM | – | – | – | – | – | – | – | – | – | – | –
2 | Cc1ccc(NC(=O)CC/C(CC(=O)C(C)(C)C)=N/NC(=O)C[N+](C)(C)C)cc1C | – | > 100 µM | > 100 µM | > 100 µM | > 100 µM | > 100 µM | > 100 µM | > 100 µM | > 100 µM | – | – | – | – | – | – | – | – | – | – | –
3 | CCN(CC)CCOc1ccc(/C=C2\C[C@H]3[C@H]4CC=C5C[C@@H](O)CC[C@]5(C)[C@H]4CC[C@]3(C)[C@H]2O)cc1OC | – | 17.4 µM | – | 20.6 µM | 22.5 µM | 22.8 µM | 11.7 µM | 18.1 µM | 14.5 µM | 9.23 | 11.6 | 10.4 | 8.89 | 8.66 | 18.7 | 1.93 | 8.42 | 7.53 | – | –
4 | c1ccc(CN2CCC3(CC2)SSC2(CCN(Cc4ccccc4)CC2)SS3)cc1 | > 100 | > 100 µM | 62 µM | > 100 µM | – | > 100 µM | > 100 µM | > 100 µM | > 100 µM | – | – | – | – | – | > 100 | – | – | – | – | –
5 | C=C(C)C1CC=C(C)CC1 (stereo not drawn) | 1610 | > 100 µM and 1570 µM | > 100 µM and 1830 µM | > 100 µM and 1730 µM | > 100 µM and 1720 µM | > 100 µM and 1630 µM | > 100 µM and 1590 µM | > 100 µM and 1850 µM | > 100 µM and 1550 µM | > 100 | > 100 | > 100 | > 100 | – | – | > 100 | > 100 | > 100 | > 100 | –
6 | COc1ccc2c(Cc3c4ccccc4cc4ccccc34)cncc2c1O | 23.9 | 27.3 µM | 50.1 µM | – | 8.36 µM | 22.4 µM | > 100 µM | 14 µM | > 44.2 µM | – | – | – | – | – | > 100 | – | – | – | – | –
7 | COC(=O)C1=Cc2cc(OC)c(OC)cc2[C@H](c2ccc(OC)c(OC)c2)C1C(=O)OC (stereo partly drawn) | > 100 | > 100 µM | > 100 µM | > 100 µM | > 100 µM | > 100 µM | > 100 µM | > 100 µM | > 100 µM | – | – | – | – | – | – | – | – | – | – | –
8 | COc1cccc(NC(=O)C(C)(C)C)c1SSc1c(NC(=O)C(C)(C)C)cccc1OC | > 100 | > 100 µM | > 100 µM | > 100 µM | > 73.1 µM | > 100 µM | 33.1 µM | 51.4 µM | 45.4 µM | – | – | – | – | – | – | – | – | – | – | –
9 | O=[N+]([O-])c1ccc(Sc2nc(Cl)nc(NC3CCCC3)n2)cc1 | > 10 | > 10 µM | – | > 10 µM | > 10 µM | > 10 µM | > 10 µM | – | > 10 µM | > 10 | > 10 | > 10 | > 10 | > 10 | > 10 | 4.78 | – | > 10 | – | > 10
10 | Nc1ccccc1NC(=O)c1ccc(CN2CCC/C(=C\c3ccccn3)C2=O)cc1 | 3.47 | > 100 µM | > 100 µM | 20.2 µM | 6.48 µM | > 100 µM | > 100 µM | 14.8 µM | 2.35 µM | 1.26 | 1.86 | 0.467 | 2.5 | – | – | 0.745 | 1.15 | 0.411 | 3.75 | 1.09
11 | NC1=NN(c2ccccc2)C(=O)C1/C(=N\NC(=O)c1cc2ccccc2cc1O)C(=O)Nc1cccc(C(F)(F)F)c1 (stereo not drawn) | – | > 100 µM | > 100 µM | > 100 µM | 27.6 µM | > 100 µM | > 100 µM | 71.1 µM | > 100 µM | – | – | – | – | – | – | – | – | – | – | –
12 | Cn1c(=O)c2ccc(-c3ccc(Br)cc3)nc2n(C)c1=O | > 100 | – | > 100 µM | > 100 µM | > 100 µM | > 100 µM | > 100 µM | > 100 µM | > 100 µM | – | – | – | – | – | – | – | – | – | – | –
13 | N#Cc1cc([N+](=O)[O-])ccc1NC(=O)C(F)(F)F | > 100 | > 100 µM | > 100 µM | > 100 µM | > 100 µM | > 100 µM | > 55.8 µM | > 100 µM | > 100 µM | – | – | – | – | – | – | – | – | – | – | –
14 | CC(C)=CCC1=C(OCC(=O)O)C(=O)c2ccccc2C1=O | > 100 | > 100 µM | > 100 µM | – | 36.1 µM | > 100 µM | 76.6 µM | 76 µM | 37.7 µM | – | – | – | – | – | 62.6 | – | – | – | – | –
15 | COC(=O)C[CH2][Ge]([CH3])([CH3])[S]c1ccccc1 | – | 88.4 µM | 86.4 µM | > 100 µM | 31.4 µM | 65.4 µM | 31.4 µM | > 100 µM | 60.9 µM | 28.6 | – | 12.2 | 22.6 | – | – | 16.7 | 51.2 | 21.9 | 28.2 | –
16 | NCCCn1c2c(c3ccc([N+](=O)[O-])cc3c1=O)C(=O)c1cc(-c3ccccc3)ccc1-2 | 1.54 | 3.08 µM | 3.45 µM | 1.27 µM | 1.3 µM | 1.46 µM | 0.336 µM | 3.46 µM | 3 µM | 1.56 | 0.31 | 0.5 | 0.406 | – | – | 0.182 | 1.85 | 1.55 | 1.61 | 0.694
17 | CSc1nc2c(nc(N)n2C2OC(COC(C)=O)C(OC(C)=O)C(OC(C)=O)C2OC(C)=O)c(=O)n1C (stereo not drawn) | > 100 | > 100 µM | > 100 µM | > 100 µM | > 100 µM | > 100 µM | > 100 µM | > 100 µM | > 100 µM | – | – | – | – | – | – | – | – | – | – | –
18 | CC(=O)[CH-]C(=O)c1ccccc1.CC(=O)[CH-]C(=O)c1ccccc1.CC1(C)OCC(C2OC3OC(C)(C)OC3C2[O-])O1.CC1(C)OCC(C2OC3OC(C)(C)OC3C2[O-])O1.[Ti+4] (stereo not drawn) | 30.2 | 38.1 µM | 30.1 µM | – | – | 36.2 µM | 29.7 µM | – | 39.6 µM | 16.4 | – | – | 17.9 | – | – | 10.7 | – | 16.9 | 14.1 | 15.7
